Experimental data as given in ChEMBL document CHEMBL1201862, “PubChem BioAssay data set” (2004).
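Following 48 hours of exposure in 96-well plates, responses at five concentrations were used to interpolate endpoints linearly. At the GI50, growth is halved.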 Active and inactive are the calls of the source. Rule as the data show it: active = GI50 up to about 1.1 µM and inactive = higher.

Tests used:
Experiment in all cases: growth of human tumour cells (NCI), 48 h
CCRF-CEM = test system: CCRF-CEM
COLO 205 = test system: COLO 205
HCC 2998 = test system: HCC 2998
HT-29 = test system: HT-29
IGROV-1 = test system: IGROV-1
KM12 = test system: KM12
LOX IMVI = test system: LOX IMVI
NCI-H23 = test system: NCI-H23
OVCAR-4 = test system: OVCAR-4
SF-295 = test system: SF-295
SK-MEL-2 = test system: SK-MEL-2
SNB-75 = test system: SNB-75
SW-620 = test system: SW-620
TK-10 = test system: TK-10
SN12C = test system: SN12C
SK-MEL-5 = test system: SK-MEL-5

SMILES | GI50 (CCRF-CEM) | GI50 (COLO 205) | GI50 (HCC 2998) | GI50 (HT-29) | GI50 (IGROV-1) | GI50 (KM12) | GI50 (LOX IMVI) | GI50 (NCI-H23) | GI50 (OVCAR-4) | GI50 (SF-295) | GI50 (SK-MEL-2) | GI50 (SNB-75) | GI50 (SW-620) | GI50 (TK-10) | GI50 (SN12C) | GI50 (SK-MEL-5)
COc1ccc(C(=O)C(C(=O)C(=O)NCCCNC(=O)C(=O)C(C(=O)c2ccc(OC)cc2)c2ccc(OC)cc2)c2ccc(OC)cc2)cc1 (stereo not drawn) | > 100 µM (inactive) | > 100 µM (inactive) | > 100 µM (inactive) | > 100 µM (inactive) | > 100 µM (inactive) | > 100 µM (inactive) | > 100 µM (inactive) | > 100 µM (inactive) | > 100 µM (inactive) | > 100 µM (inactive) | > 100 µM (inactive) | > 100 µM (inactive) | > 100 µM (inactive) | > 100 µM (inactive) | – | –
COC1(OC)CCC2(C)OC(c3ccccc3)C1O2 (stereo not drawn) | > 100 µM (inactive) | > 100 µM (inactive) | > 100 µM (inactive) | > 100 µM (inactive) | > 100 µM (inactive) | > 100 µM (inactive) | > 100 µM (inactive) | > 100 µM (inactive) | > 100 µM (inactive) | > 100 µM (inactive) | > 100 µM (inactive) | > 100 µM (inactive) | > 100 µM (inactive) | > 100 µM (inactive) | > 100 µM (inactive) | –
COc1ccc(-c2cc(N3CCN(c4ccc(Cl)cc4)CC3)c(C#N)c(=O)o2)cc1 | – | > 100 µM (inactive) | 91.8 µM (inactive) | > 100 µM (inactive) | 10.9 µM (inactive) | > 100 µM (inactive) | 10.4 µM (inactive) | 21.8 µM (inactive) | 2.45 µM (inactive) | 4.28 µM (inactive) | 15.6 µM (inactive) | 3.25 µM (inactive) | 40 µM (inactive) | 16.5 µM (inactive) | 15.1 µM (inactive) | 11.9 µM (inactive)
O=P(c1ccccc1)(c1ccccc1)C1CC=C(c2ccccc2)C2(CCCC2)C1 (stereo not drawn) | 33.1 µM (inactive) | 22.8 µM (inactive) | – | 59.2 µM (inactive) | 42.7 µM (inactive) | 40.4 µM (inactive) | 31.3 µM (inactive) | 9.44 µM (inactive) | 29.6 µM (inactive) | 72.3 µM (inactive) | 46.7 µM (inactive) | 30.7 µM (inactive) | 81.3 µM (inactive) | 72.3 µM (inactive) | 59.7 µM (inactive) | 71.8 µM (inactive)
O=c1ccc2ccccc2o1 [COUMARIN] | > 100 µM (inactive) | > 100 µM (inactive) | > 100 µM (inactive) | > 100 µM (inactive) | > 100 µM (inactive) | > 100 µM (inactive) | > 100 µM (inactive) | > 100 µM (inactive) | > 100 µM (inactive) | > 100 µM (inactive) | > 100 µM (inactive) | > 100 µM (inactive) | > 100 µM (inactive) | > 100 µM (inactive) | > 100 µM (inactive) | –
COC(=O)[C@]1(C)CCCC2(C)C1CC[C@H]1C=C(C)[C@H]3CCC12C3 (stereo partly drawn) | > 100 µM (inactive) | > 100 µM (inactive) | > 100 µM (inactive) | 49.9 µM (inactive) | > 100 µM (inactive) | > 100 µM (inactive) | 68.2 µM (inactive) | > 100 µM (inactive) | > 100 µM (inactive) | > 100 µM (inactive) | – | > 100 µM (inactive) | > 100 µM (inactive) | > 100 µM (inactive) | > 100 µM (inactive) | 98.2 µM (inactive)
COC(=O)Cc1cc(=O)n2c([nH]c3ccccc32)c1C#N | – | > 100 µM (inactive) | > 100 µM (inactive) | > 100 µM (inactive) | > 100 µM (inactive) | > 100 µM (inactive) | > 100 µM (inactive) | > 100 µM (inactive) | > 100 µM (inactive) | > 100 µM (inactive) | > 100 µM (inactive) | 0.42 µM (active) | > 100 µM (inactive) | > 100 µM (inactive) | 82.6 µM (inactive) | 34.8 µM (inactive)
CC1=NN(C(=O)c2ccc(Cl)cc2)C(=O)/C1=C/c1cccc([N+](=O)[O-])c1 | > 100 µM (inactive) | > 100 µM (inactive) | > 100 µM (inactive) | > 100 µM (inactive) | > 100 µM (inactive) | > 100 µM (inactive) | > 100 µM (inactive) | > 100 µM (inactive) | > 100 µM (inactive) | > 100 µM (inactive) | > 100 µM (inactive) | – | > 100 µM (inactive) | > 100 µM (inactive) | > 100 µM (inactive) | > 100 µM (inactive)
CC(=O)N[C@@H]1C(O)CN2C(=O)C(=O)O[C@H](C(O)CO)[C@@H]12 (stereo partly drawn) | > 100 µM (inactive) | > 100 µM (inactive) | > 100 µM (inactive) | > 100 µM (inactive) | > 100 µM (inactive) | > 100 µM (inactive) | > 100 µM (inactive) | – | – | > 100 µM (inactive) | > 100 µM (inactive) | > 100 µM (inactive) | > 100 µM (inactive) | > 100 µM (inactive) | – | –
Cc1ccc2c(c1)C1C(CO2)C(c2ccccc2)=NN1c1ccccc1 (stereo not drawn) | > 100 µM (inactive) | > 100 µM (inactive) | 95.5 µM (inactive) | 69.5 µM (inactive) | > 100 µM (inactive) | > 100 µM (inactive) | > 100 µM (inactive) | > 100 µM (inactive) | – | > 100 µM (inactive) | > 100 µM (inactive) | > 100 µM (inactive) | > 100 µM (inactive) | > 100 µM (inactive) | – | –
Cc1nc(-n2nc(-c3ccccc3)cc2-c2ccccc2)sc1C(=O)/C=C/c1ccc(Cl)c(Cl)c1 | 16.9 µM (inactive) | 28.7 µM (inactive) | 24.7 µM (inactive) | > 10 µM (inactive) | 12.1 µM (inactive) | 8.67 µM (inactive) | 13.1 µM (inactive) | 49.2 µM (inactive) | 21.1 µM (inactive) | 16.7 µM (inactive) | 41.7 µM (inactive) | – | 21.5 µM (inactive) | 43.2 µM (inactive) | 15.7 µM (inactive) | –
CC(=O)Nc1ccc(-c2nnc(SCC(=O)Nc3ccccc3)o2)cc1 | 59.4 µM (inactive) | > 100 µM (inactive) | – | 60.5 µM (inactive) | 47.6 µM (inactive) | 65 µM (inactive) | 33.5 µM (inactive) | 39.5 µM (inactive) | > 100 µM (inactive) | 77.6 µM (inactive) | > 100 µM (inactive) | > 100 µM (inactive) | > 100 µM (inactive) | > 100 µM (inactive) | 90.4 µM (inactive) | 69 µM (inactive)
CN1C(=N\S(=O)(=O)c2ccc(Cl)cc2)/C(=N/N=P(c2ccccc2)(c2ccccc2)c2ccccc2)c2ccccc21 | > 100 µM (inactive) | > 100 µM (inactive) | > 100 µM (inactive) | > 100 µM (inactive) | > 100 µM (inactive) | > 100 µM (inactive) | – | > 100 µM (inactive) | > 100 µM (inactive) | > 100 µM (inactive) | > 100 µM (inactive) | > 100 µM (inactive) | > 100 µM (inactive) | > 100 µM (inactive) | > 100 µM (inactive) | > 100 µM (inactive)
